Source: patent US10307425B2, “Compositions and methods for treating toxoplasmosis, cryptosporidiosis and other apicomplexan protozoan related diseases” (UNIVERSITY OF WASHINGTON, priority 2015, dated 2019)

Target: TgCDPK1 (Toxoplasma gondii, UniProt Q9BJF5)
Assay: biochemical

Sequence of TgCDPK1 (Q9BJF5 1-507): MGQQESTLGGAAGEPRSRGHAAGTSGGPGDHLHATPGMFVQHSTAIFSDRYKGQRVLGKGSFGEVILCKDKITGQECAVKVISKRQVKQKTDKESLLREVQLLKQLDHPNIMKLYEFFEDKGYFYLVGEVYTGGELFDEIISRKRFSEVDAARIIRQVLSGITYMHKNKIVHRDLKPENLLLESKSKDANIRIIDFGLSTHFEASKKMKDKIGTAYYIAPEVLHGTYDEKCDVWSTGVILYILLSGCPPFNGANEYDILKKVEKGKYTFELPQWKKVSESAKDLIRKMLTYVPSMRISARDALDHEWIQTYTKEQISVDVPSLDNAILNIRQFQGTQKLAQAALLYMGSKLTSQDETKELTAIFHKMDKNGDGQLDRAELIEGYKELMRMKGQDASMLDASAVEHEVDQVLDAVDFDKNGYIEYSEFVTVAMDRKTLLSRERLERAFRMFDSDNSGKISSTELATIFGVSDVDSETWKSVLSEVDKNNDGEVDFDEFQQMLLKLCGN

`CC(C)n1nc(-c2ccc3cc(OCCO)ccc3c2)c2c(N)ncnc21` [Example 118, 2-((6-(4-amino-1-isopropyl-1H-pyrazolo[3,4-d]pyrimidin-3-yl)naphthalen-2-yl)oxy)ethan-1-ol] and `CC(C)Cn1nc(-c2ccc3cc(OCCO)ccc3c2)c2c(N)ncnc21` [Example 34, 2-(6-(4-amino-1-isobutyl-1H-pyrazolo[3,4-d]pyrimidin-3-yl)naphthalen-2-yloxy)ethanol] are within 1.5-fold of each other in IC50: 6.2 nM for the first, 5.8 nM for the second.

Compared with `COCc1ccc2cc(-c3nn(CC(O)(C(F)(F)F)C(F)(F)F)c4ncnc(N)c34)ccc2c1` [Example 52, 2-((4-amino-3-(6-(methoxymethyl)naphthalen-2-yl)-1H-pyrazolo[3,4-d]pyrimidin-1-yl)methyl)-1,1,1,3,3,3-hexafluoropropan-2-ol], `CCOc1ccc2cc(-c3nn(CC(C)(C)CO)c4ncnc(N)c34)ccc2c1` [Example 32, 3-(4-amino-3-(6-ethoxynaphthalen-2-yl)-1H-pyrazolo[3,4-d]pyrimidin-1-yl)-2,2-dimethylpropan-1-ol] is 70-fold lower in IC50: 84.2 nM for the first, 1.2 nM for the second. The second is the more potent here.

Going from `COC(=O)COc1ccc2cc(-c3nn(CC4CCN(C)CC4)c4ncnc(N)c34)ccc2c1` [Example 72, methyl 2-((6-(4-amino-1-((1-methylpiperidin-4-yl)methyl)-1H-pyrazolo[3,4-d]pyrimidin-3-yl)naphthalen-2-yl)oxy)acetate] to `CN1CCC(Cn2nc(-c3ccc4cc(OC(F)F)ccc4c3)c3c(N)ncnc32)CC1` [Example 95, 3-(6-(difluoromethoxy)naphthalen-2-yl)-1-((1-methylpiperidin-4-yl)methyl)-1H-pyrazolo[3,4-d]pyrimidin-4-amine], the IC50 falls from 49.6 nM to 6.5 nM (7.6-fold). The second is the more potent here.

Compared with `Nc1ncnc2c1c(-c1ccc3cc(OC(F)F)ccc3c1)nn2CC1(O)CCNCC1` [Example 98, 4-((4-amino-3-(6-(difluoromethoxy)naphthalen-2-yl)-1H-pyrazolo[3,4-d]pyrimidin-1-yl)methyl)piperidin-4-ol], `N#CC1(Cn2nc(-c3ccc4cc(OC(F)F)ccc4c3)c3c(N)ncnc32)CCNCC1` [Example 100, 4-((4-amino-3-(6-(difluoromethoxy)naphthalen-2-yl)-1H-pyrazolo[3,4-d]pyrimidin-1-yl)methyl)piperidine-4-carbonitrile] is 3-fold lower in IC50: 7.5 nM for the first, 2.5 nM for the second.

`Nc1ncnc2c1c(-c1ccc3nc(OC4CC4)ccc3c1)nn2CC1(CO)COC1` [Example 64, (3-((4-amino-3-(2-cyclopropoxyquinolin-6-yl)-1H-pyrazolo[3,4-d]pyrimidin-1-yl)methyl)oxetan-3-yl)methanol] and `Nc1ncnc2c1c(-c1ccc3nc(OC4CC4)ccc3c1)nn2CC1(O)CNC1` [Example 101, 3-((4-amino-3-(2-cyclopropoxyquinolin-6-yl)-1H-pyrazolo[3,4-d]pyrimidin-1-yl)methyl)azetidin-3-ol] are within 1.5-fold of each other in IC50: 3.6 nM for the first, 3 nM for the second.

Going from `Nc1ncnc2c1c(-c1ccc3cc(OC4CCC4)ccc3c1)nn2CC1CCOCC1` [Example 30, 3-(6-cyclobutoxynaphthalen-2-yl)-1-((tetrahydro-2H-pyran-4-yl)methyl)-1H-pyrazolo[3,4-d]pyrimidin-4-amine] to `Nc1ncnc2c1c(-c1ccc3cc(OC4CC4)ccc3c1)nn2CC1(O)CCOCC1` [Example 63, 4-((4-amino-3-(6-cyclopropoxynaphthalen-2-yl)-1H-pyrazolo[3,4-d]pyrimidin-1-yl)methyl)-tetrahydro-2H-pyran-4-ol], the IC50 rises from 2.6 nM to 12.8 nM (4.9-fold). The first is the more potent here.

Compared with `CCOc1ccc2cc(-c3nn(CC4(C#N)CCNCC4)c4ncnc(N)c34)ccc2c1` [Example 74, 4-((4-amino-3-(6-ethoxynaphthalen-2-yl)-1H-pyrazolo[3,4-d]pyrimidin-1-yl)methyl)piperidine-4-carbonitrile], `CCOc1ccc2cc(-c3nn(CC4(O)CCNCC4)c4ncnc(N)c34)ccc2c1` [Example 70, 4-((4-amino-3-(6-ethoxynaphthalen-2-yl)-1H-pyrazolo[3,4-d]pyrimidin-1-yl)methyl)piperidin-4-ol] is 8.6-fold higher in IC50: 2.7 nM for the first, 23.3 nM for the second.

Compared with `CCOc1ccc2cc(-c3nn(CC4(C#N)CCNCC4)c4ncnc(N)c34)ccc2n1` [Example 86, 4-((4-amino-3-(2-ethoxyquinolin-6-yl)-1H-pyrazolo[3,4-d]pyrimidin-1-yl)methyl)piperidine-4-carbonitrile], `CCOc1ccc2cc(-c3nn(CC4(O)CNC4)c4ncnc(N)c34)ccc2n1` [Example 93, 3-((4-amino-3-(2-ethoxyquinolin-6-yl)-1H-pyrazolo[3,4-d]pyrimidin-1-yl)methyl)azetidin-3-ol] is 1.9-fold higher in IC50: 1.5 nM for the first, 2.9 nM for the second.

First: CCOc1ccc2cc(-c3nn(CC(=O)N4CCOCC4)c4ncnc(N)c34)ccc2c1 [Example 50, 2-(4-amino-3-(6-ethoxynaphthalen-2-yl)-1H-pyrazolo[3,4-d]pyrimidin-1-yl)-1-morpholinoethanone]
Second: Nc1ncnc2c1c(-c1ccc3cc(OC4CC4)ccc3c1)nn2CC(=O)N1CCOCC1 [Example 51, 2-(4-amino-3-(6-cyclopropoxynaphthalen-2-yl)-1H-pyrazolo[3,4-d]pyrimidin-1-yl)-1-morpholinoethanone]
The IC50 of the first is 2.7-fold higher: 42.9 nM for the first, 15.8 nM for the second.

Compared with `Nc1ncnc2c1c(-c1ccc3nc(OC4CC4)ccc3c1)nn2CC1(O)CCNCC1` [Example 82, 4-((4-amino-3-(2-cyclopropoxyquinolin-6-yl)-1H-pyrazolo[3,4-d]pyrimidin-1-yl)methyl)piperidin-4-ol], `Nc1ncnc2c1c(-c1ccc3nc(OC4CC4)ccc3c1)nn2CC1(O)CCCC1` [Example 60, 1-((4-amino-3-(2-cyclopropoxyquinolin-6-yl)-1H-pyrazolo[3,4-d]pyrimidin-1-yl)methyl)cyclopentanol] is 18-fold higher in IC50: 0.7 nM for the first, 12.7 nM for the second.

Compared with `Nc1ncnc2c1c(-c1ccc3cc(OC(F)F)ccc3c1)nn2CC1CCNCC1` [Example 94, 3-(6-(difluoromethoxy)naphthalen-2-yl)-1-(piperidin-4-ylmethyl)-1H-pyrazolo[3,4-d]pyrimidin-4-amine], `CCOc1ccc2ccc(-c3nn(CC4CCNCC4)c4ncnc(N)c34)cc2c1` [Example 48, 3-(7-ethoxynaphthalen-2-yl)-1-(piperidin-4-ylmethyl)-1H-pyrazolo[3,4-d]pyrimidin-4-amine] is 10-fold higher in IC50: 1.9 nM for the first, 19.1 nM for the second. The first is the more potent here.

Going from `CC(C)Cn1nc(-c2ccc3cc(OC4COC4)ccc3c2)c2c(N)ncnc21` [Example 35, 1-isobutyl-3-(6-(oxetan-3-yloxy)naphthalen-2-yl)-1H-pyrazolo[3,4-d]pyrimidin-4-amine] to `COCCOc1ccc2cc(-c3nn(CC(C)C)c4ncnc(N)c34)ccc2c1` [Example 36, 1-isobutyl-3-(6-(2-methoxyethoxy)naphthalen-2-yl)-1H-pyrazolo[3,4-d]pyrimidin-4-amine], the IC50 falls from 4 nM to 1.7 nM (2.4-fold).

First: CC(C)(Cn1nc(-c2ccc3cc(OC4CC4)ccc3c2)c2c(N)ncnc21)C(=O)O [Example 76, 3-(4-amino-3-(6-cyclopropoxynaphthalen-2-yl)-1H-pyrazolo[3,4-d]pyrimidin-1-yl)-2,2-dimethylpropanoic acid]
Second: COC(C)(C)Cn1nc(-c2ccc3cc(OC4CC4)ccc3c2)c2c(N)ncnc21 [Example 66, 3-(6-cyclopropoxynaphthalen-2-yl)-1-(2-methoxy-2-methylpropyl)-1H-pyrazolo[3,4-d]pyrimidin-4-amine]
The IC50 of the first is 86-fold lower: 19.4 nM for the first, 1660 nM for the second. The first is the more potent here.

Compared with `Nc1ncnc2c1c(-c1ccc3nc(OC4CC4)ccc3c1)nn2CC1(O)CCOCC1` [Example 62, 4-((4-amino-3-(2-cyclopropoxyquinolin-6-yl)-1H-pyrazolo[3,4-d]pyrimidin-1-yl)methyl)-tetrahydro-2H-pyran-4-ol], `CN1CCC(C#N)(Cn2nc(-c3ccc4nc(OC5CC5)ccc4c3)c3c(N)ncnc32)CC1` [Example 92, 4-((4-amino-3-(2-cyclopropoxyquinolin-6-yl)-1H-pyrazolo[3,4-d]pyrimidin-1-yl)methyl)-1-methylpiperidine-4-carbonitrile] is 3.5-fold lower in IC50: 19.2 nM for the first, 5.5 nM for the second.

Going from `CN1CCC(Cn2nc(-c3ccc4cc(OC5COC5)ccc4c3)c3c(N)ncnc32)CC1` [Example 12, 1-((1-Methylpiperidin-4-yl)methyl)-3-(6-(oxetan-3-yloxy)naphthalen-2-yl)-1H-pyrazolo[3,4-d]pyrimidin-4-amine] to `CN1CCC(O)(Cn2nc(-c3ccc4cc(OC5CC5)ccc4c3)c3c(N)ncnc32)CC1` [Example 79, 4-((4-amino-3-(6-cyclopropoxynaphthalen-2-yl)-1H-pyrazolo[3,4-d]pyrimidin-1-yl)methyl)-1-methylpiperidin-4-ol], the IC50 falls from 10.7 nM to 4.5 nM (2.4-fold).

Going from `CN1CC(O)(Cn2nc(-c3ccc4cc(OC5CC5)ccc4c3)c3c(N)ncnc32)C1` [Example 91, 3-((4-amino-3-(6-cyclopropoxynaphthalen-2-yl)-1H-pyrazolo[3,4-d]pyrimidin-1-yl)methyl)-1-methylazetidin-3-ol] to `CCOc1ccc2cc(-c3nn(CC4(O)CCN(C)CC4)c4ncnc(N)c34)ccc2c1` [Example 71, 4-((4-amino-3-(6-ethoxynaphthalen-2-yl)-1H-pyrazolo[3,4-d]pyrimidin-1-yl)methyl)-1-methylpiperidin-4-ol], the IC50 rises from 3.8 nM to 59.3 nM (16-fold). The first is the more potent here.

Compared with `CCOc1ccc2cc(-c3nc(CC4CCNCC4)n4ccnc(N)c34)ccc2c1` [Example 114, 1-(6-ethoxynaphthalen-2-yl)-3-(piperidin-4-ylmethyl)imidazo[1,5-a]pyrazin-8-amine], `COC(=O)COc1ccc2cc(-c3nn(CC4CCNCC4)c4ncnc(N)c34)ccc2n1` [Example 89, methyl 2-(6-(4-amino-1-(piperidin-4-ylmethyl)-1H-pyrazolo[3,4-d]pyrimidin-3-yl)quinolin-2-yloxy)acetate] is 140-fold higher in IC50: 10 nM for the first, 1440 nM for the second.

First: Nc1ncnc2c1c(-c1ccc3nc(OC4CC4)ccc3c1)nn2CC1CCNCC1 [Example 39, 3-(2-cyclopropoxyquinolin-6-yl)-1-(piperidin-4-ylmethyl)-1H-pyrazolo[3,4-d]pyrimidin-4-amine]
Second: CN1CC(Cn2nc(-c3ccc4nc(OC5CC5)ccc4c3)c3c(N)ncnc32)C1 [Example 41, 3-(2-cyclopropoxyquinolin-6-yl)-1-((1-methylazetidin-3-yl)methyl)-1H-pyrazolo[3,4-d]pyrimidin-4-amine]
The IC50 of the first is 2.8-fold lower: 1 nM for the first, 2.8 nM for the second. The first is the more potent here.

For `CC(C)(COCCO)Cn1nc(-c2ccc3nc(OC4CC4)ccc3c2)c2c(N)ncnc21` [Example 45, 2-(3-(4-amino-3-(2-cyclopropoxyquinolin-6-yl)-1H-pyrazolo[3,4-d]pyrimidin-1-yl)-2,2-dimethylpropoxy)ethanol], the IC50 was 1200 nM.
